US20200121677A1, “SUBSTITUTED 6,7-DIHYDROPYRAZOLO[1,5-a]PYRAZINES AS NEGATIVE ALLOSTERIC MODULATORS OF MGLUR2 RECEPTORS” (Janssen Pharmaceutica NV, priority 2014, published 2020)

Tests used:
[1] = biological target: human mGlu2 receptor (Homo sapiens, UniProt Q14416); assay: [35S]GTPγS binding assay, mGluR2 negative allosteric modulation (membranes from CHO cells transfected with human mGlu2 receptor, glutamate ~EC80 60 μM); details: for IC50: GTPγS - hmGluR2 anGT pIC50, membranes with human mGlu2 receptor; for IC50 / GTPγS - hmGluR2 anGT pIC50: glutamate ~EC80 (60 μM), pIC50 = -log IC50 (M); for Emax: read-out: GTPγS - hmGluR2 anGT Emax, relative maximal effect: maximal % inhibition relative to the control glutamate response; for GTPγS - hmGluR2 anGT pIC50: membranes with human mGlu2 receptor; for GTPγS - hmGluR2 anGT Emax: relative maximal effect: maximal % inhibition relative to the control glutamate response;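 for all read-outs here: membranes preincubated 30 min at 30 °C with compound plus glutamate, then [35S]GTPγS (0.1 nM) incorporation measured over another 30 min at 30 °C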
human mGlu2 receptor, sequence (Q14416 19-872): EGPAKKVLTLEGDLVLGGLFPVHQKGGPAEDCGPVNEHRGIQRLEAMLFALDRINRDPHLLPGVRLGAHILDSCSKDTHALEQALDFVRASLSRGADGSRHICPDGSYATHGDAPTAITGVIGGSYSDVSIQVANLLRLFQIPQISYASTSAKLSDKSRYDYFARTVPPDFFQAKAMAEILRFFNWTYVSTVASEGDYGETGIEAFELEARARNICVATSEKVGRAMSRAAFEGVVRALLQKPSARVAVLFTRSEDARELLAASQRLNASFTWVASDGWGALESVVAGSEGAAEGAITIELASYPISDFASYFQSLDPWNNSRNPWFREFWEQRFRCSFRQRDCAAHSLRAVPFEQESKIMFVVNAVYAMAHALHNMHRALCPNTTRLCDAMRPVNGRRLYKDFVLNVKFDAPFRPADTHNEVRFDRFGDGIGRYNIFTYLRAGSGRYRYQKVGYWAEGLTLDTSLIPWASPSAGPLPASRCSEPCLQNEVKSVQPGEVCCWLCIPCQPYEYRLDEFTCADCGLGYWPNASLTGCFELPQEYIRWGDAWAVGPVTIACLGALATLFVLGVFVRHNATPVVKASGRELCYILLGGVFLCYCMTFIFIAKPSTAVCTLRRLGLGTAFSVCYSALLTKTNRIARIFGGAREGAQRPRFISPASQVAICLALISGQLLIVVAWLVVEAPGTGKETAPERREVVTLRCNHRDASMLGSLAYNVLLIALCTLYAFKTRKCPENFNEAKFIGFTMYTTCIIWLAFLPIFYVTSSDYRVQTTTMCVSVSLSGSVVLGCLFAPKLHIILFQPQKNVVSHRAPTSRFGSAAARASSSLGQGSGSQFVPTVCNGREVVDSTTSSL
Procedure: The [^35S]GTPγS binding assay is a functional membrane-based assay used to study G-protein coupled receptor (GPCR) function whereby incorporation of a non-hydrolysable form of GTP, [^35S]GTPγS (guanosine 5′-triphosphate, labelled with gamma-emitting ^35S), is measured. […] Here we describe the use of the [^35S]GTPγS binding assay using membranes from cells transfected with the human mGlu2 receptor and adapted from Schaffhauser et al. (Molecular Pharmacology, 2003, 4:798-810) for the detection of the negative allosteric modulation (NAM) properties of the compounds of this invention.
CHO-cells were cultured to pre-confluence and stimulated with 5 mM butyrate for 24 h. Cells were then collected by scraping in PBS and cell suspension was centrifuged (10 min at 4000 RPM in benchtop centrifuge). Supernatant was discarded and pellet gently resuspended in 50 mM Tris-HCl, pH 7.4 by mixing with an Ultra Turrax homogenizer. The suspension was centrifuged at 12,400 RPM (Sorvall F14S-6x250Y) for 10 minutes and the supernatant discarded. The pellet was homogenized in 5 mM Tris-HCl, pH 7.4 using an Ultra Turrax homogenizer and centrifuged again (13,000 RPM, 20 min, 4° C.). The final pellet was resuspended in 50 mM Tris-HCl, pH 7.4 and stored at −80° C. in appropriate aliquots before use. Protein concentration was determined by the Bradford method (Bio-Rad, USA) with bovine serum albumin as standard.
Measurement of mGluR2 negative allosteric modulatory activity of test compounds was performed as follows. Test compounds and glutamate were diluted in assay buffer containing 10 mM HEPES acid, 10 mM HEPES salt, pH 7.4, 100 mM NaCl, 3 mM MgCl2 and 10 μM GDP. Human mGlu2 receptor-containing membranes were thawed on ice and diluted in assay buffer supplemented with 18 μg/ml saponin. Membranes were pre-incubated with compound together with a predefined (˜EC80) concentration of glutamate (60 μM) for 30 min at 30° C. After addition of [^35S]GTPγS (f.c. 0.1 nM), assay mixtures were shaken briefly and further incubated to allow [^35S]GTPγS incorporation on activation (30 minutes, 30° C.). Final assay mixtures contained 7 μg of membrane protein in 10 mM HEPES acid, 10 mM HEPES salt, pH 7.4, 100 mM NaCl, 3 mM MgCl2, 10 μM GDP and 10 μg/ml saponin. Total reaction volume was 200 μl. Reactions were terminated by rapid filtration through Unifilter-96 GF/B plates (Perkin Elmer, Massachusetts, USA) using a 96-well filtermate universal harvester. Filters were washed 6 times with ice-cold 10 mM NaH2PO4/10 mM Na2HPO4, pH 7.4. Filters were then air-dried, and 30 μl of liquid scintillation cocktail (Microscint-O) was added to each well. Membrane-bound radioactivity was counted in a Topcount.
Data were calculated as % of the control glutamate response, defined as the response that is generated upon addition of an EC80-equivalent concentration of glutamate.

[2] = test system: rats; assay: Reversal of the effect of the mGluR2 PAM JNJ-42153605-induced inhibition of scopolamine-induced hyperlocomotion; format: in vivo, rat; details: rats, route PO, criterion total distance >1500 cm; for ED50: Rattus norvegicus, read-out: ED50 SCOP JNJ-42153605 (Reversal of the effect of JNJ 42153605 on scopolamine-induced hyperlocomotion)
Procedure: 2) Reversal of the Effect of the mGluR2 PAM JNJ-42153605-Induced Inhibition of Scopolamine-Induced Hyperlocomotion
Motor activity was measured in microprocessor-based motor activity arenas (closed gray PVC cylinders with a height of 39 cm and a diameter of 31 cm). Each arena was placed on an infrared LED (8×8 LEDs) lit box (white PVC squared box; 40×40 cm^2; height 12.5 cm. An infrared-sensitive tube camera and a white light source were mounted to the ceiling above the observation chamber to track the animal. The total distance traveled (cm) was recorded and analyzed using the Noldus Ethovision XT Video Tracking System (Version 7.0.418; Noldus, Wageningen, The Netherlands). The intensity of the light within the activity cages (measured in the centre at the level of the floor) ranged between 4 and 8 LUX.
The rats were pretreated with test compound or vehicle at 60 min before the start of the activity recordings and placed into individual cages. The rats were challenged with JNJ-42153605 (3-(cyclopropylmethyl)-7-(4-phenylpiperidin-1-yl)-8-(trifluoromethyl)[1,2,4]triazolo[4,3-a]pyridine; WO2010/130424; Cid et al. J. Med. Chem. 2012, 55, 8770-8789) (20 mg/kg, i.v.) 30 min before the start of the activity recording combined with scopolamine (0.16 mg/kg, i.v.) just before the start of the activity measurements. Immediately after the injection of scopolamine, the rats were placed into the activity monitors and total distance traveled over the first 30 min was measured.
For reversal of the inhibitory effect of JNJ-42153605 on the scopolamine-induced hyperlocomotion, the following all-or-none criteria were adopted: (1) reversal: total distance >1500 cm.

| SMILES | IC50 [1] [M] | Emax [1] [%] | ED50 [2] [mg/kg] | melting point [°C] | GTPγS - hmGluR2 anGT pIC50 [1] | GTPγS - hmGluR2 anGT Emax [1] [%] | ED50 SCOP JNJ-42153605 (Reversal of the effect of JNJ 42153605 on scopolamine-induced hyperlocomotion) [2] [mg/kg] |
| --- | --- | --- | --- | --- | --- | --- | --- |
| C[C@H]1CN(c2ccc(C(F)(F)F)cc2)C(=O)c2c(C(=O)Nc3ccncc3)cnn21 [compound 3] | 2.09e-09 | 116 | 0.08 | 160.2 | – | – | – |
| C[C@H]1CN(c2ccc(C(F)(F)F)cc2)C(=O)c2c(C(=O)Nc3ccncc3F)cnn21 [compound 4] | 3.02e-09 | 117 | 1.01 | 189 | – | – | – |
| C[C@H]1CN(c2ccc(C(F)(F)F)cc2)C(=O)c2c(C(=O)Nc3ccc(F)cc3)cnn21 [compound 7] | 4.68e-09 | 103 | > 2.5 | 185.3 | – | – | – |
| C[C@H]1CN(c2ccc(C(F)(F)F)cc2)C(=O)c2c(C(=O)Nc3ccc(N)nc3)cnn21 [compound 19] | 2.63e-09 | 104 | 0.79 | 181.5 | – | – | – |
| COc1cc(N2C[C@H](C)n3ncc(C(=O)Nc4cnccc4C)c3C2=O)ccc1C(F)(F)F [compound 32] | 3.47e-09 | 111 | > 0.63 | 243.4 | – | – | – |
| COc1cc(N2C[C@H](C)n3ncc(C(=O)Nc4cncc(C)c4)c3C2=O)ccc1C(F)(F)F [compound 33] | 3.72e-09 | 111 | > 0.63 | 216.6 | – | – | – |
| C[C@H]1CN(c2ccc(C(F)(F)F)c(F)c2)C(=O)c2c(C(=O)Nc3ccc(F)cn3)cnn21 [compound 78] | 1.35e-08 | 106 | > 0.63 | 183.36 | – | – | – |
| Cc1cc(NC(=O)c2cnn3c2C(=O)N(c2ccc(C(F)(F)F)c(C)c2)C[C@@H]3C)ccn1 [compound 86] | 2.29e-09 | 105 | 1.26 | 121.8 | – | – | – |
| Cc1cc(NC(=O)c2cnn3c2C(=O)N(c2ccc(Cl)cc2)C[C@@H]3C)ccn1 [compound 89] | 1.05e-08 | 107 | > 2.5 | 171.4 | – | – | – |
| C[C@H]1CN(c2ccc(Cl)c(Cl)c2)C(=O)c2c(C(=O)Nc3ccc(F)cn3)cnn21 [compound 98, (7S)-5-(3,4-Dichlorophenyl)-N-(5-fluoro-2-pyridyl)-7-methyl-4-oxo-6,7-dihydropyrazolo[1,5-a]pyrazine-3-carboxamide] | 3.63e-09 | 107 | > 0.63 | 179.56 | – | – | – |
| C[C@H]1CN(c2ccc(C(F)(F)F)cc2)C(=O)c2c(C(=O)Nc3ccc(F)cn3)cnn21 [compound 104] | 8.13e-09 | 108 | > 0.63 | 184.48 | – | – | – |
| COc1cccc(NC(=O)c2cnn3c2C(=O)N(c2ccc(C(F)(F)F)cc2)C[C@@H]3C)n1 [compound 105] | – | – | – | – | 8.21 | 108 | >2.5 |
| C[C@H]1CN(c2ccc(C(F)(F)F)c(Cl)c2)C(=O)c2c(C(=O)Nc3cnccn3)cnn21 [compound 106] | 1.15e-09 | 111 | 0.32 | – | – | – | – |
| C[C@H]1CN(c2ccc(C(F)(F)F)c(Cl)c2)C(=O)c2c(C(=O)Nc3ccc(F)cn3)cnn21 [compound 108] | 2.82e-09 | 104 | > 0.63 | 212.88 | – | – | – |
| Cc1cc(N2C[C@H](C)n3ncc(C(=O)Nc4ccc(F)cn4)c3C2=O)ccc1C(F)(F)F [compound 110] | – | – | – | – | 8.3 | 107 | >0.63 |
| Cc1cc(NC(=O)c2cnn3c2C(=O)N(c2ccc(C(F)(F)F)c(C)c2)C[C@@H]3C)cc(C)n1 [compound 111] | 1.45e-09 | 109 | 0.32 | 161.92 | – | – | – |
| Cc1cc(N2C[C@H](C)n3ncc(C(=O)Nc4cnccn4)c3C2=O)ccc1C(F)(F)F [compound 112] | 1.12e-09 | 106 | 0.2 | – | – | – | – |
